In ChEMBL document CHEMBL3879908, “Pyrrolidinone carboxamide derivatives” (2014):

Each compound was assayed against T1, Chemerin-like receptor 1 (Homo sapiens, UniProt Q99788) (assay: Displacement of [125I]-chemerin from ChemR23 (unknown origin) transfected in mouse BaF3 cells after 3 hrs by scintillation counting method).
T1 sequence (Q99788 whole entry): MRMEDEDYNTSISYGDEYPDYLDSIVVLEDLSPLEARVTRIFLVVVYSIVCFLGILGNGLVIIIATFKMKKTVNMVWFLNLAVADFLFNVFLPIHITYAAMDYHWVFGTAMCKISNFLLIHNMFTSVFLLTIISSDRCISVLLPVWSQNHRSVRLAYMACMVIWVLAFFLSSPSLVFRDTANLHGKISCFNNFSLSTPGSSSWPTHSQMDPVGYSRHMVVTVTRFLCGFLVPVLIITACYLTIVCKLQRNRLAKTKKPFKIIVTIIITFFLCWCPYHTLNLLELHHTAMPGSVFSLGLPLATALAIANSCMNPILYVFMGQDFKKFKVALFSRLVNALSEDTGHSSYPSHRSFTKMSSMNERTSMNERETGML
Type: cell-based

Row | IC50 | Structure (SMILES)
1 | 30 to 300 nM | Cc1cccc(C)c1N1CC(C(=O)Nc2cc(C(F)(F)F)cc(C(F)(F)F)c2)(C2=CCS(=O)(=O)CC2)CC1=O (stereo unspecified)
2 | ≤ 30 nM | CC[C@@H]1C(=O)N(c2c(C)cccc2C)C[C@@]1(CC)C(=O)Nc1cc(C(F)(F)F)cc(C(F)(F)F)c1
3 | 30 to 300 nM | Cc1cccc(F)c1N1CC(C(=O)Nc2cc(C(F)(F)F)cc(C(F)(F)F)c2)(C(C)C)CC1=O (stereo unspecified)
4 | 30 to 300 nM | C=Cc1ccccc1N1CC(C(=O)Nc2cc(C(F)(F)F)cc(C(F)(F)F)c2)(C(C)C)CC1=O (stereo unspecified)
5 | 300 to 6000 nM | COCCOc1cc(NC(=O)C2(C(C)C)CC(=O)N(c3c(C)cccc3Br)C2)cc(C(F)(F)F)c1 (stereo unspecified)
6 | 300 to 6000 nM | Cc1cccc(Br)c1N1CC(C(=O)Nc2cccc(C(F)(F)F)c2)CC1=O (stereo unspecified)
7 | ≤ 30 nM | Cc1cccc(C)c1N1C[C@@](CN2CCCCC2)(C(=O)Nc2cc(C#N)cc(C(F)(F)F)c2)[C@H](C)C1=O
8 | ≤ 30 nM | Cc1cccc(C)c1N1C[C@@](CN(C)C2CCC2)(C(=O)Nc2cc(C(F)(F)F)cc(C(F)(F)F)c2)[C@H](C)C1=O
9 | 300 to 6000 nM | CC(C)C1(C(=O)Nc2cc(C(F)(F)F)cc(C(F)(F)F)c2)CC(=O)N(c2ccccc2CO)C1 (stereo unspecified)
10 | 300 to 6000 nM | Cc1cccc(S(C)(=O)=O)c1N1CC(C(=O)Nc2cc(C(F)(F)F)cc(C(F)(F)F)c2)CC1=O (stereo unspecified)
11 | 300 to 6000 nM | Cc1cccc(C)c1N1CC(C(=O)Nc2ccc(Cl)cc2Cl)CC1=O (stereo unspecified)
12 | ≤ 30 nM | CCN(C[C@@]1(C(=O)Nc2cc(C(F)(F)F)cc(C(F)(F)F)c2)CN(c2c(C)cccc2C)C(=O)[C@H]1C)C(C)C
13 | ≤ 30 nM | CC[C@@H]1C(=O)N(c2c(C)cccc2C)C[C@@]1(C)C(=O)Nc1cc(C(F)(F)F)cc(C(F)(F)F)c1
14 | 30 to 300 nM | Cc1cccc(CN2CCOCC2)c1N1CC(C(=O)Nc2cc(C(F)(F)F)cc(C(F)(F)F)c2)(C(C)C)CC1=O (stereo unspecified)
15 | 30 to 300 nM | COC(=O)c1cc(NC(=O)C2CC(=O)N(c3c(C)cccc3C)C2)cc(C(F)(F)F)c1 (stereo unspecified)
16 | 30 to 300 nM | CC[C@@]1(C(=O)Nc2cc(C(F)(F)F)cc(C(F)(F)F)c2)CN(c2c(C)cccc2C)C(=O)[C@H]1C
17 | ≤ 30 nM | Cc1cccc(C)c1N1CC2(C(=O)Nc3cc(C(F)(F)F)cc(C(F)(F)F)c3)COC=CC2C1=O (stereo unspecified)
18 | 300 to 6000 nM | CCc1cccc(C)c1N1CC(C(=O)Nc2ccc(OC)c(C(F)(F)F)c2)CC1=O (stereo unspecified)
19 | ≤ 30 nM | Cc1cccc(C)c1N1CC(C(=O)Nc2cc(C(F)(F)F)cc(C(F)(F)F)c2)CC1=O (stereo unspecified)
20 | ≤ 30 nM | CC[C@@]1(C(=O)Nc2cc(OC3CCC3)cc(C(F)(F)F)c2)CN(c2c(C)cccc2C)C(=O)[C@H]1C
21 | ≤ 30 nM | CC[C@@]1(C(=O)Nc2cc(C(F)(F)F)cc(C(F)(F)F)c2)CN(c2c(C)cccc2C)C(=O)[C@H]1OC
22 | ≤ 30 nM | CCC[C@@]1(C(=O)Nc2cc(C(F)(F)F)cc(C(F)(F)F)c2)CN(c2c(C)cccc2C)C(=O)[C@H]1C
23 | 30 to 300 nM | Cc1cccc(C)c1N1C[C@@](CN2CCC(F)CC2)(C(=O)Nc2cc(C(F)(F)F)cc(C(F)(F)F)c2)[C@H](C)C1=O
24 | ≤ 30 nM | Cc1cccc(C)c1N1C[C@@](CN2CCCC2)(C(=O)Nc2cc(C#N)cc(C(F)(F)F)c2)[C@H](C)C1=O
25 | ≤ 30 nM | CCN(C)C[C@@]1(C(=O)Nc2cc(C#N)cc(C(F)(F)F)c2)CN(c2c(C)cccc2C)C(=O)[C@H]1C
26 | ≤ 30 nM | CCN(CC(C)C)C[C@@]1(C(=O)Nc2cc(C(F)(F)F)cc(C(F)(F)F)c2)CN(c2c(C)cccc2C)C(=O)[C@H]1C

Row | IC50 | Structure (SMILES)
27 | ≤ 30 nM | CC[C@]1(C(=O)Nc2cc(C(F)(F)F)cc(C(F)(F)F)c2)CC(=O)N(c2c(C)cccc2C)C1
28 | ≤ 30 nM | Cc1cccc(C)c1N1C[C@@](CN(C)C(C)C)(C(=O)Nc2cc(C(F)(F)F)cc(C(F)(F)F)c2)[C@H](C)C1=O
29 | 300 to 6000 nM | Cc1cccc(C)c1N1CC(C(=O)Nc2ccc(Cl)c(C(F)(F)F)c2)CC1=O (stereo unspecified)
30 | 30 to 300 nM | Cc1cccc(C)c1N1C[C@@](CN2CCO[C@H](C)C2)(C(=O)Nc2cc(C#N)cc(C(F)(F)F)c2)[C@H](C)C1=O
31 | 30 to 300 nM | Cc1cccc(C)c1N1CC2(C(=O)Nc3cc(C(F)(F)F)cc(C(F)(F)F)c3)C[C@@H](F)CC2C1=O (stereo partly specified)
32 | 30 to 300 nM | Cc1cccc(C)c1N1C[C@](C(=O)Nc2cc(C(F)(F)F)cc(C(F)(F)F)c2)(C2CCOCC2)[C@@H](C)C1=O
33 | 30 to 300 nM | CCc1cc(NC(=O)[C@]2(CN3CCC(F)(F)CC3)CN(c3c(C)cccc3C)C(=O)[C@H]2C)cc(C(F)(F)F)c1
34 | ≤ 30 nM | CCN(CC)C[C@@]1(C(=O)Nc2cc(C3CC3)cc(C(F)(F)F)c2)CN(c2c(C)cccc2C)C(=O)[C@H]1C
35 | 30 to 300 nM | Cc1cccc(C)c1N1C[C@@](CN2CCC(F)(F)C2)(C(=O)Nc2cc(C3CC3)cc(C(F)(F)F)c2)[C@H](C)C1=O
36 | ≤ 30 nM | Cc1cccc(C)c1N1CC2(C(=O)Nc3cc(C(F)(F)F)cc(C(F)(F)F)c3)CC(F)(F)CC2C1=O (stereo unspecified)
37 | 30 to 300 nM | Cc1cccc(C)c1N1C[C@@](CN2CCCC(F)(F)C2)(C(=O)Nc2cc(C(F)(F)F)cc(C(F)(F)F)c2)[C@H](C)C1=O
38 | 30 to 300 nM | Cc1cccc(C)c1N1C[C@@](CN2CCC2)(C(=O)Nc2cc(C#N)cc(C(F)(F)F)c2)[C@H](C)C1=O
39 | 30 to 300 nM | Cc1cccc(C)c1N1CC(C(=O)Nc2cc(N3CCCC3)cc(C(F)(F)F)c2)CC1=O (stereo unspecified)
40 | ≤ 30 nM | CCCN(C)C[C@@]1(C(=O)Nc2cc(C(F)(F)F)cc(C(F)(F)F)c2)CN(c2c(C)cccc2C)C(=O)[C@H]1C
41 | 30 to 300 nM | CC(C)C1(C(=O)Nc2cc(C(F)(F)F)cc(C(F)(F)F)c2)CC(=O)N(c2ccccc2C2CC2)C1 (stereo unspecified)
42 | ≤ 30 nM | CC[C@@]1(C(=O)Nc2cc(CN3CCCC3C(F)(F)F)cc(C(F)(F)F)c2)CN(c2c(C)cccc2C)C(=O)[C@H]1C (stereo partly specified)
43 | ≤ 30 nM | Cc1cccc(C)c1N1CC(CN2CCCC2)(C(=O)Nc2cc(C3CC3)cc(C(F)(F)F)c2)CC1=O (stereo unspecified)
44 | 30 to 300 nM | Cc1cccc(C)c1N1C[C@](C(=O)Nc2cc(C(F)(F)F)cc(C(F)(F)F)c2)(C(C)C)[C@H](C)C1=O
45 | ≤ 30 nM | Cc1cccc(C)c1N1C[C@@](CN(C)CC(F)(F)F)(C(=O)Nc2cc(C#N)cc(C(F)(F)F)c2)[C@H](C)C1=O
46 | 300 to 6000 nM | Cc1cccc(CCO)c1N1CC(C(=O)Nc2cc(C(F)(F)F)cc(C(F)(F)F)c2)(C(C)C)CC1=O (stereo unspecified)
47 | 30 to 300 nM | Cc1cccc(N2CC(C(=O)Nc3cc(C(F)(F)F)cc(C(F)(F)F)c3)CC2=O)c1C (stereo unspecified)
48 | 30 to 300 nM | Cc1cccc(C)c1N1C[C@@](CN(C)C(C)C)(C(=O)Nc2cc(C3CC3)cc(C(F)(F)F)c2)[C@H](C)C1=O
49 | 300 to 6000 nM | Cc1cccc(C)c1N1CC(C(=O)Nc2cccc(Cl)c2)CC1=O (stereo unspecified)
50 | ≤ 30 nM | Cc1cccc(C)c1N1C[C@](C(=O)Nc2cc(C(F)(F)F)cc(C(F)(F)F)c2)(C2CCOCC2)[C@H](C)C1=O
51 | ≤ 30 nM | CC[C@@]1(C(=O)Nc2cc(C#N)cc(C(F)(F)F)c2)CN(c2c(C)cccc2C)C(=O)[C@H]1C
52 | 300 to 6000 nM | Cc1cccc(C)c1N1C[C@@](CN2CCOCC2)(C(=O)Nc2cc(C(F)(F)F)cc(C(F)(F)F)c2)[C@H](C)C1=O

Row | IC50 | Structure (SMILES)
53 | 300 to 6000 nM | Cc1cccc(C)c1N1CC(C(=O)Nc2cc(C(F)(F)F)cc(C(F)(F)F)c2)(C(C)N2CCCC2)CC1=O (stereo unspecified)
54 | 30 to 300 nM | Cc1cccc(C)c1N1C[C@@](CN2CCC(F)(F)C2)(C(=O)Nc2cc(C(F)(F)F)cc(C(F)(F)F)c2)[C@H](C)C1=O
55 | 30 to 300 nM | Cc1cccc(C)c1N1CC(C(=O)Nc2cc(C(F)(F)F)cc(C(F)(F)F)c2)(C(C)O)CC1=O (stereo unspecified)
56 | ≤ 30 nM | CC[C@@]1(C(=O)Nc2cc(OC(C)C)cc(C(F)(F)F)c2)CN(c2c(C)cccc2C)C(=O)[C@H]1C
57 | 300 to 6000 nM | CCC1(C(=O)Nc2cc(C(F)(F)F)cc(C(F)(F)F)c2)CC(=O)N(c2ccccc2OC)C1 (stereo unspecified)
58 | 300 to 6000 nM | CCc1cccc(C)c1N1CC(C(=O)Nc2cccc(C(F)(F)F)c2)CC1=O (stereo unspecified)
59 | ≤ 30 nM | Cc1cccc(C)c1N1CC(C(=O)Nc2cc(C(F)(F)F)cc(C(F)(F)F)c2)(C2CCN(C(=O)OC(C)(C)C)CC2)CC1=O (stereo unspecified)
60 | ≤ 30 nM | Cc1cccc(C)c1N1C[C@](C(=O)Nc2cc(C#N)cc(C(F)(F)F)c2)(C(C)C)CC1=O
61 | ≤ 30 nM | Cc1ccccc1N1CC(C)(C(=O)Nc2cc(C(F)(F)F)cc(C(F)(F)F)c2)CC1=O (stereo unspecified)
62 | 300 to 6000 nM | Cc1cccc(C)c1N1C[C@]2(C(=O)Nc3cc(C(F)(F)F)cc(C(F)(F)F)c3)CC=CC[C@@H]2C1=O
63 | 300 to 6000 nM | Cc1cccc(C)c1N1CC2(C(=O)Nc3cc(C(F)(F)F)cc(C(F)(F)F)c3)CC2C1=O (stereo unspecified)
64 | ≤ 30 nM | CCN(CC(F)(F)F)C[C@@]1(C(=O)Nc2cc(C#N)cc(C(F)(F)F)c2)CN(c2c(C)cccc2C)C(=O)[C@H]1C
65 | ≤ 30 nM | Cc1cccc(C)c1N1CC(C(=O)Nc2cc(C(F)(F)F)cc(C(F)(F)F)c2)(N(C)C)CC1=O (stereo unspecified)
66 | 30 to 300 nM | Cc1cccc(C)c1N1CC(C(=O)Nc2cc(Cl)cc(Cl)c2)CC1=O (stereo unspecified)
67 | ≤ 30 nM | COCC1(C(=O)Nc2cc(C(F)(F)F)cc(C(F)(F)F)c2)CC(=O)N(c2c(C)cccc2C)C1 (stereo unspecified)
68 | ≤ 30 nM | CCCC1(C(=O)Nc2cc(C(F)(F)F)cc(C(F)(F)F)c2)CC(=O)N(c2c(C)cccc2C)C1 (stereo unspecified)
69 | 30 to 300 nM | CC(C)c1ccccc1N1CC(C(=O)Nc2cc(C(F)(F)F)cc(C(F)(F)F)c2)CC1=O (stereo unspecified)
70 | 300 to 6000 nM | Cc1cccc(C)c1N1CC(CN2CCCC2)(C(=O)Nc2cc(C(F)(F)F)cc(C(F)(F)F)c2)CC1=O (stereo unspecified)
71 | ≤ 30 nM | Cc1cccc(C)c1N1CC(C(=O)Nc2cc(C(F)(F)F)cc(C(F)(F)F)c2)(C2CCOCC2)CC1=O (stereo unspecified)
72 | ≤ 30 nM | CC[C@@]1(C(=O)Nc2cc(Cl)cc(C(F)(F)F)c2)CN(c2c(C)cccc2C)C(=O)[C@H]1C
73 | 300 to 6000 nM | Cc1ccccc1N1CC(C(=O)Nc2cccc(C(F)(F)F)c2)CC1=O (stereo unspecified)
74 | ≤ 30 nM | CC[C@@]1(C(=O)Nc2cc(OC3CCCC3)cc(C(F)(F)F)c2)CN(c2c(C)cccc2C)C(=O)[C@H]1C
75 | 30 to 300 nM | Cc1cccc(C)c1N1C[C@@](CN2CCN(CC(F)(F)F)CC2)(C(=O)Nc2cc(F)cc(C(F)(F)F)c2)[C@H](C)C1=O
76 | 30 to 300 nM | CC[C@@]1(C(=O)Nc2cc(C(F)(F)F)cc(C(F)(F)F)c2)CC(=O)N(c2c(C)cccc2C)C1
